# In ChEMBL document CHEMBL3272309, “Potential central nervous system antitumor agents. Aziridinylbenzoquinones. 1” (J Med Chem, 1976):
# Calls of active or inactive are those of the source. The calls are words filed in the database; no cut-off is given here.
# Tests used:
# [1] = Antitumor activity against mouse ependymoblastoma cells allografted in mouse assessed as change in body weight at 4 mg/kg, ip qd administered from day 1 to 5 post intracerebral tumor-implantation measured on day 5 relative to control; type: functional; conditions: route intraperitoneal
# B16 [2] = assay: Antitumor activity against mouse B16 cells allografted in mouse assessed as change in body weight at 6.25 mg/kg, ip qd administered from day 1 to 9 post ip tumor-implantation measured on day 5 relative to control; type: functional; conditions: route intraperitoneal
# B16 [3] = assay: Antitumor activity against mouse B16 cells allografted in mouse assessed as change in body weight at 3.12 mg/kg, ip qd administered from day 1 to 9 post ip tumor-implantation measured on day 5 relative to control; type: functional; conditions: route intraperitoneal
# [4] = test system: Lewis lung carcinoma cell line; assay: Antitumor activity against mouse LLC cells allografted in mouse assessed as mouse survival at 2 mg/kg, ip qd administered from day 5 to 15 post sc tumor-implantation relative to control; type: functional; conditions: route subcutaneous
# P388 [5] = assay: Antitumor activity against mouse P388 cells allografted in mouse assessed as mouse survival at 3.12 mg/kg, ip qd administered from day 1 to 9 post intracerebral tumor-implantation relative to control; type: functional; conditions: route intraperitoneal
# Mus musculus [6] = assay: Toxicity in mouse allografted with mouse P388 cells at 6.25 mg/kg, ip qd administered from day 1 to 9 post ip tumor-implantation; type: organism-based; parameters: dose 6.25 mg/kg, route intraperitoneal; conditions: in vivo
# L1210 [7] = assay: Antitumor activity against mouse L1210 cells allografted in mouse assessed as change in body weight at 2 mg/kg, ip qd administered from day 1 to 9 post ip tumor-implantation measured on day 5 relative to control; type: functional; conditions: route intraperitoneal
# [8] = Antitumor activity against mouse ependymoblastoma cells allografted in mouse assessed as mouse survival at 1 mg/kg, ip qd administered from day 1 to 5 post intracerebral tumor-implantation relative to control; type: functional; conditions: route intraperitoneal
# [9] = Antitumor activity against mouse ependymoblastoma cells allografted in mouse assessed as change in body weight at 1 mg/kg, ip qd administered from day 1 to 5 post intracerebral tumor-implantation measured on day 5 relative to control; type: functional; conditions: route intraperitoneal
# P388 [10] = assay: Antitumor activity against mouse P388 cells allografted in mouse assessed as change in body weight at 1.56 mg/kg, ip qd administered from day 1 to 9 post intracerebral tumor-implantation measured on day 5 relative to control; type: functional; conditions: route intraperitoneal
# [11] = Antitumor activity against mouse ependymoblastoma cells allografted in mouse assessed as mouse survival at 0.25 mg/kg, ip qd administered from day 1 to 5 post intracerebral tumor-implantation relative to control; type: functional; conditions: route intraperitoneal
# Mus musculus [12] = assay: Toxicity in mouse allografted with mouse B16 cells at 6.25 mg/kg, ip qd administered from day 1 to 9 post ip tumor-implantation; type: organism-based; parameters: dose 6.25 mg/kg, route intraperitoneal; conditions: in vivo
# B16 [13] = assay: Antitumor activity against mouse B16 cells allografted in mouse assessed as mouse survival at 1.56 mg/kg, ip qd administered from day 1 to 9 post ip tumor-implantation relative to control; type: functional; conditions: route intraperitoneal
# P388 [14] = assay: Antitumor activity against mouse P388 cells allografted in mouse assessed as mouse survival at 1.56 mg/kg, ip qd administered from day 1 to 9 post ip tumor-implantation relative to control; type: functional; conditions: route intraperitoneal
# B16 [15] = assay: Antitumor activity against mouse B16 cells allografted in mouse assessed as mouse survival at 3.12 mg/kg, ip qd administered from day 1 to 9 post ip tumor-implantation relative to control; type: functional; conditions: route intraperitoneal
# Mus musculus [16] = assay: Toxicity in mouse allografted with mouse ependymoblastoma cells at 4 mg/kg, ip qd administered from day 1 to 5 post intracerebral tumor-implantation; type: organism-based; parameters: dose 4 mg/kg, route intraperitoneal; conditions: in vivo
# P388 [17] = assay: Antitumor activity against mouse P388 cells allografted in mouse assessed as mouse survival at 3.12 mg/kg, ip qd administered from day 1 to 9 post ip tumor-implantation relative to control; type: functional; conditions: route intraperitoneal
# L1210 [18] = assay: Antitumor activity against mouse L1210 cells allografted in mouse assessed as change in body weight at 0.88 mg/kg, ip qd administered from day 1 to 9 post ip tumor-implantation measured on day 5 relative to control; type: functional; conditions: route intraperitoneal
# L1210 [19] = assay: Antitumor activity against mouse L1210 cells allografted in mouse assessed as mouse survival at 0.88 mg/kg, ip qd administered from day 1 to 9 post ip tumor-implantation relative to control; type: functional; conditions: route intraperitoneal
# P388 [20] = assay: Antitumor activity against mouse P388 cells allografted in mouse assessed as change in body weight at 1.56 mg/kg, ip qd administered from day 1 to 9 post ip tumor-implantation measured on day 5 relative to control; type: functional; conditions: route intraperitoneal
# L1210 [21] = assay: Antitumor activity against mouse L1210 cells allografted in mouse assessed as mouse survival at 3.12 mg/kg, ip qd administered from day 1 to 9 post ip tumor-implantation relative to control; type: functional; conditions: route intraperitoneal
# L1210 [22] = assay: Antitumor activity against mouse L1210 cells allografted in mouse assessed as change in body weight at 1.3 mg/kg, ip qd administered from day 1 to 9 post ip tumor-implantation measured on day 5 relative to control; type: functional; conditions: route intraperitoneal
# Mus musculus [23] = assay: Toxicity in mouse allografted with mouse L1210 cells at 12.5 mg/kg, ip qd administered from day 1 to 9 post ip tumor-implantation; type: organism-based; parameters: dose 12.5 mg/kg, route intraperitoneal; conditions: in vivo
# L1210 [24] = assay: Antitumor activity against mouse L1210 cells allografted in mouse assessed as mouse survival at 1.3 mg/kg, ip qd administered from day 1 to 9 post ip tumor-implantation relative to control; type: functional; conditions: route intraperitoneal
# L1210 [25] = assay: Antitumor activity against mouse L1210 cells allografted in ip dosed mouse at optimum dose administered qd on day 1, 5 and 9 relative to control; type: functional
# L1210 [26] = assay: Antitumor activity against mouse L1210 cells allografted in mouse assessed as change in body weight at 4.6 mg/kg, ip qd administered from day 1 to 9 post ip tumor-implantation measured on day 5 relative to control; type: functional; conditions: route intraperitoneal
# Mus musculus [27] = assay: Antitumor activity against mouse ependymoblastoma cells allografted in mouse assessed as cure rate at 2 mg/kg, ip qd administered from day 1 to 5 post intracerebral tumor-implantation measured on day 99; type: functional, organism-based; parameters: dose 2 mg/kg
# P388 [28] = assay: Antitumor activity against mouse P388 cells allografted in mouse assessed as mouse survival at 0.39 mg/kg, ip qd administered from day 1 to 9 post intracerebral tumor-implantation relative to control; type: functional; conditions: route intraperitoneal
# [29] = Therapeutic ratio, ratio of highest active dose to lowest active for antitumor activity against in ip dosed mouse allografted with mouse B16 cells; type: ADME, organism-based; conditions: in vivo, read-out: TI
# L1210 [30] = assay: Antitumor activity against mouse L1210 cells allografted in mouse assessed as change in body weight at 6.25 mg/kg, ip qd administered from day 1 to 9 post intracerebral tumor-implantation measured on day 5 relative to control; type: functional; conditions: route intraperitoneal
# Mus musculus [31] = assay: Toxicity in mouse allografted with mouse LLC cells at 4 mg/kg, ip qd administered from day 5 to 15 post sc tumor-implantation; type: organism-based; parameters: dose 4 mg/kg; conditions: in vivo
# [32] = Therapeutic ratio in ip dosed mouse allografted with mouse ependymoblastoma cells; type: ADME, organism-based; conditions: in vivo, read-out: TI
# L1210 [33] = assay: Antitumor activity against mouse L1210 cells allografted in mouse assessed as mouse survival at 3.12 mg/kg, ip qd administered from day 1 to 9 post intracerebral tumor-implantation relative to control; type: functional; conditions: route intraperitoneal
# L1210 [34] = assay: Antitumor activity against mouse L1210 cells allografted in mouse assessed as change in body weight at 0.78 mg/kg, ip qd administered from day 1 to 9 post intracerebral tumor-implantation measured on day 5 relative to control; type: functional; conditions: route intraperitoneal
compound,measurement,setting,value
CCOC(=O)NC1=C(N2CC2)C(=O)C(NC(=O)OCC)=C(N2CC2)C1=O [DIAZIQUONE],Activity,[1],-3.9 g
same,Activity,B16 [2],-4.4 g
same,Activity,B16 [3],-2.7 g
same,T/C,[4],134%
same,T/C,P388 [5],131%
same,Activity,Mus musculus [6],Toxic
same,Activity,L1210 [7],-3.8 g
same,T/C,[8],226%
same,Activity,[9],-2.1 g
same,Activity,P388 [10],-1.1 g
same,T/C,[11],130%
same,Activity,Mus musculus [12],Toxic
same,T/C,B16 [13],138%
same,T/C,P388 [14],212%
same,T/C,B16 [15],143%
same,Activity,Mus musculus [16],Toxic
same,T/C,P388 [17],100%
same,Activity,L1210 [18],-1.4 g
same,T/C,L1210 [19],132%
same,Activity,P388 [20],-4 g
same,T/C,L1210 [21],128%
same,Activity,L1210 [22],-2.3 g
same,Activity,Mus musculus [23],Toxic
same,T/C,L1210 [24],160%
same,T/C,L1210 [25],154%
same,Activity,L1210 [26],-4.6 g
same,Activity,Mus musculus [27],Active
same,T/C,P388 [28],102%
same,selectivity ratio,[29],3
same,Activity,L1210 [30],-2.8 g
same,Activity,Mus musculus [31],Toxic
same,selectivity ratio,[32],4
same,T/C,L1210 [33],179%
same,Activity,L1210 [34],-0.5 g
